The target of the test is T1, GCS enzyme contained within Golgi preparations isolated from human A375 malignant melanoma skin cells (Homo sapiens, UniProt Q16739).
T1 construct: endogenous levels of GCS enzyme contained within Golgi preparations isolated from human A375 malignant melanoma skin cells; endogenous in cells; host or cells: A375 human malignant melanoma cells (crude Golgi preparation)
T1 sequence (Q16739 1-394): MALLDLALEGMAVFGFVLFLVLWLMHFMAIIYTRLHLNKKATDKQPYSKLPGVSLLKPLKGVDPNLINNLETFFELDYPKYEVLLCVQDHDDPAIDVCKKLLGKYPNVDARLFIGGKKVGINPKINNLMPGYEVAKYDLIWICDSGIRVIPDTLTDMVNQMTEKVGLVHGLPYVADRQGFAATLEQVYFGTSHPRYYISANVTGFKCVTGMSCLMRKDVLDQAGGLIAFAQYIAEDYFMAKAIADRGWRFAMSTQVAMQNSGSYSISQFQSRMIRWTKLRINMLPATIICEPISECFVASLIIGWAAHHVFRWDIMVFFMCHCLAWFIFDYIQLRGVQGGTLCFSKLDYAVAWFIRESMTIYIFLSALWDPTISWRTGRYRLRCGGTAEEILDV
Kind of test: UDP-Glo glucosylceramide synthase biochemical assay. The following applies: crude Golgi preparation from A375 cells; C6 ceramide and UDP-glucose substrates; 20 h incubation at room temperature; UDP detected by luminescence. In short, it runs like this:
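Endogenous enzyme in A375 Golgi preparations (1.5 μg total protein) was preincubated 30 min with compound, then reacted 20 h at room temperature with UDP-glucose and ceramide.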

Molecules are shown by their SMILES.

On to `Cc1nnc(-c2ccc(-c3c(F)cc(Cl)c4c3C(=O)N([C@H](C3CC3)C(C)(C)O)C4)cc2)o1` [Compound 41, (R)-4-chloro-2-(1-cyclopropyl-2-hydroxy-2-methylpropyl)-6-fluoro-7-(4-(5-methyl-1,3,4-oxadiazol-2-yl)phenyl)isoindolin-1-one], for which the EC50 was determined as 0.25 nM.

With `CC(C)(O)C(C1CC1)N1Cc2cccc(NC(=O)c3ccnc4c3OCCO4)c2C1=O` (single isomer, unassigned) [Compound 163, (R or S)-N-(2-(1-cyclopropyl-2-hydroxy-2-methylpropyl)-3-oxoisoindolin-4-yl)-2,3-dihydro-[1,4]dioxino[2,3-b]pyridine-8-carboxamide], it took 61 nM to reach a half-maximal effect (EC50).

Regarding `CCOc1ccccc1C(=O)Nc1cccc2c1C(=O)N(CC1(O)COC1)C2` [Compound 106, 2-ethoxy-N-(2-((3-hydroxyoxetan-3-yl)methyl)-3-oxoisoindolin-4-yl)benzamide], the EC50 worked out at 720 nM.

In the case of `Cc1cnc2c(c1C(=O)Nc1cccc3c1C(=O)N([C@@H](C)C1CC1)C3)OCO2` [Compound 134, (S)-N-(2-(1-cyclopropylethyl)-3-oxoisoindolin-4-yl)-6-methyl-[1,3]dioxolo[4,5-b]pyridine-7-carboxamide], it took 59 nM to reach a half-maximal effect (EC50).

The compound `Cn1cc2c(C(=O)Nc3cccc4c3C(=O)N(C(C3CC3)C(C)(C)O)C4)cccc2n1` (single isomer, unassigned) [Compound 160, (R or S)-N-(2-(1-cyclopropyl-2-hydroxy-2-methylpropyl)-3-oxoisoindolin-4-yl)-2-methyl-2H-indazole-4-carboxamide] registered an EC50 of 5.9 nM.

As to `Cn1cc(-c2ccc(-c3cncc4c3C(=O)N([C@H](C3CC3)C(C)(C)O)C4)cc2)cn1` [Compound 32, (R)-2-(1-cyclopropyl-2-hydroxy-2-methylpropyl)-7-(4-(1-methyl-1H-pyrazol-4-yl)phenyl)-2,3-dihydro-1H-pyrrolo[3,4-c]pyridin-1-one], the EC50 was found to be 57 nM.

The compound `CC(C)(O)[C@@H](C1CC1)N1Cc2cccc(-c3cccnc3OCC(F)(F)F)c2C1=O` [Compound 73, (R)-2-(1-cyclopropyl-2-hydroxy-2-methylpropyl)-7-(2-(2,2,2-trifluoroethoxy)pyridin-3-yl)isoindolin-1-one] returned an EC50 of 55 nM.

With `COc1nccc(C(=O)Nc2cccc3c2C(=O)N([C@H](C2CC2)C(C)(C)O)C3)c1C` [Compound 159, (R)-N-(2-(1-cyclopropyl-2-hydroxy-2-methylpropyl)-3-oxoisoindolin-4-yl)-2-methoxy-3-methylisonicotinamide], it took 2.5 nM to reach a half-maximal effect (EC50).

Compound `CC(C)[C@H](CO)N1Cc2cccc(NC(=O)c3nc(C(F)(F)F)ccc3Cl)c2C1=O` [Compound 125, (R)-3-chloro-N-(2-(1-hydroxy-3-methylbutan-2-yl)-3-oxoisoindolin-4-yl)-6-(trifluoromethyl)picolinamide] returned an EC50 of 30 nM.

Turning to `Cc1ncc(-c2ccc(-c3cccc4c3C(=O)N([C@H](C3CC3)C(C)(C)O)C4)cc2)o1` [Compound 91, 2-[(1R)-1-cyclopropyl-2-hydroxy-2-methyl-propyl]-7-[4-(2-methyloxazol-5-yl)phenyl]isoindolin-1-one], it took 520 nM to reach a half-maximal effect (EC50).

`Cn1cc(-c2ccc(-c3cccc4c3C(=O)N([C@H](C3CC3)C(C)(C)O)C4)cc2)nn1` [Compound 94, 2-[(1R)-1-cyclopropyl-2-hydroxy-2-methyl-propyl]-7-[4-(1-methyltriazol-4-yl)phenyl]isoindolin-1-one] returned an EC50 of 24 nM.

In turn, `Cc1nnc(-c2ccc(-c3c(F)ccc4c3C(=O)N([C@H](C3CC3)C(C)(C)O)C4)cc2F)o1` [Compound 22, (R)-2-(1-cyclopropyl-2-hydroxy-2-methylpropyl)-6-fluoro-7-(3-fluoro-4-(5-methyl-1,3,4-oxadiazol-2-yl)phenyl) isoindolin-1-one] yielded an EC50 of […].

With `O=C1c2c(cccc2-c2ccccc2OCC(F)(F)F)CN1[C@@H](CO)C1CC1` [Compound 49, (R)-2-(1-cyclopropyl-2-hydroxyethyl)-7-(2-(2,2,2-trifluoroethoxy)phenyl) isoindolin-1-one], a half-maximal response (EC50) required 92 nM.

On to `Cc1cc2c(c(NC(=O)c3ccnc4c3CCC4)c1)C(=O)N(CC1CC1)C2` [Compound 148, N-(2-(Cyclopropylmethyl)-6-methyl-3-oxoisoindolin-4-yl)-6,7-dihydro-5H-cyclopenta[b]pyridine-4-carboxamide], for which the response was half-maximal at 500 nM (EC50).

The compound `Cn1cc2c(C(=O)Nc3cccc4c3C(=O)N(C(C3CC3)C3CC3)C4)cccc2n1` [Compound 133, N-(2-(dicyclopropylmethyl)-3-oxoisoindolin-4-yl)-2-methyl-2H-indazole-4-carboxamide] showed an EC50 of 49 nM.

With `CCOc1ccccc1C(=O)Nc1cccc2c1C(=O)N(C(CO)C1CCC1)C2` (racemic) [Compound 101, (R and S)-N-(2-(1-cyclobutyl-2-hydroxyethyl)-3-oxoisoindolin-4-yl)-2-ethoxybenzamide], the 50% effective concentration (EC50) stood at 160 nM.

`Cc1cc(-c2cccc3c2C(=O)N(CCC2CN4CCC2CC4)C3)ccn1` (racemic) [Compound 54, (R and S)-7-(2-methylpyridin-4-yl)-2-(2-(quinuclidin-3-yl)ethyl)isoindolin-1-one] came in with an EC50 of 97 nM.

Compound `O=C1c2c(cccc2-c2ccc(F)cc2)CN1CCC1CN2CCC1CC2` (racemic) [Compound 52, (R and S)-7-(4-fluorophenyl)-2-(2-(quinuclidin-3-yl)ethyl)isoindolin-1-one] gave an EC50 of 160 nM.

In turn, `C[C@@H](N1Cc2cccc(NC(=O)c3c(Cl)ccc(F)c3Cl)c2C1=O)C(C)(C)O` [Compound 123, (R)-2,6-dichloro-3-fluoro-N-(2-(3-hydroxy-3-methylbutan-2-yl)-3-oxoisoindolin-4-yl)benzamide] had an EC50 of 26 nM.

Turning to `Cc1nnc(-c2ccc(-c3cccc4c3C(=O)N(C(C3CC3)C3(O)COC3)C4)cc2)o1` (single isomer, unassigned) [Compound 51, (R or S)-2-(cyclopropyl(3-hydroxyoxetan-3-yl)methyl)-7-(4-(5-methyl-1,3,4-oxadiazol-2-yl)phenyl)isoindolin-1-one], a half-maximal effect (EC50) was put at 5.9 nM.

For the compound `O=C1c2c(cccc2-c2ccccc2OCC(F)(F)F)CN1CCC1CCC(O)C1` (racemic) [Compound 47, (cis and trans racemic)-2-(2-(3-hydroxycyclopentyl)ethyl)-7-(2-(2,2,2-trifluoroethoxy)phenyl) isoindolin-1-one], the EC50 came out at 380 nM.

As for `CC(C)(O)C(C1CC1)N1Cc2cccc(COc3c(Cl)cnc4c3OCO4)c2C1=O` (single isomer, unassigned) [Compound 177, (R or S)-7-(((6-chloro-[1,3]dioxolo[4,5-b]pyridin-7-yl)oxy)methyl)-2-(1-cyclopropyl-2-hydroxy-2-methylpropyl)isoindolin-1-one], a half-maximal effect (EC50) was put at 28 nM.

Compound `Cn1cc(-c2ccc(-c3ccc(O)c4c3C(=O)N([C@H](C3CC3)C(C)(C)O)C4)cc2)cn1` [Compound 60, (R)-2-(1-cyclopropyl-2-hydroxy-2-methylpropyl)-4-hydroxy-7-(4-(1-methyl-1H-pyrazol-4-yl)phenyl) isoindolin-1-one] had an EC50 of 9.4 nM.

For the origin of these results see patent publication US12679807B2 (MERCK SHARP & DOHME LLC, priority 2020, dated 2026).
